# Source: patent US10611740B2, “Aryl dihydro-2H-benzo[b][1,4]oxazine sulfonamide and related compounds for use as agonists of RORγ and the treatment of disease” (Lycera Corporation, priority 2015, dated 2020)
# Experiments:
# [1] = molecular target: T1, RORγ-LBD (Homo sapiens, UniProt P51449); test: RORγ-Ligand Binding Domain (LBD) TR-FRET Assay; type: biochemical;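 as to TR-FRET Assay Max Response: 665/615 nm ratio relative to signal without ursolic acid or compound set at 100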
# T1 construct: made in house; host or cells: SF9 cells (baculovirus)
# T1 sequence (P51449 269-508 limits assumed): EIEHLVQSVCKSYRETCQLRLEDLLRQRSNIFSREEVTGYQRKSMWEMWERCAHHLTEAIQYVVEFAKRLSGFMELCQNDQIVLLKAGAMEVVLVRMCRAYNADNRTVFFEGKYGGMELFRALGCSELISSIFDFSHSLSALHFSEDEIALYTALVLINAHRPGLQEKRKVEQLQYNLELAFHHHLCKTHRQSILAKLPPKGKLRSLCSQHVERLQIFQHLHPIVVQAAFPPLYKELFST
# In short: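 SF9 lysate containing His-RORγ-LBD, ~3 nM final; coactivator peptide biotin-SRC1 LXXLL, 200 nM final; ursolic acid 2 μM final; DMSO 1% final; Tris pH 7.0 buffer with KCl, EDTA, DTT, BSA. TR-FRET format.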
# [2] = molecular target: T2, Gal4-RORγ-LBD (Homo sapiens, UniProt P51449); test: Gal4-RORγ Luciferase Reporter Assay in HEK-293T Cells; type: cell-based; conditions: HEK-293 cells
# T2 construct: expressed in transfected cells; host or cells: HEK-293 cells (pcDNA3.1neo plasmid)
# T2 sequence (P51449 269-508 limits assumed): T1 sequence (P51449 269-508 limits assumed)
# In short: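 In transfected HEK-293 cells (Gal4-RORγ-LBD, Gal4-luciferase), test agents with 2 μM ursolic acid were incubated overnight at 37 °C before luminescent detection. Values are relative to the ursolic-acid-free, compound-free signal (100).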
# [3] = luciferase reporter, with 2 μM ursolic acid
EC50 [1] [nM],"EC50 [2, 3] [nM]",EC50 ([2]; 2 μM ursolic acid) [nM],Compound,TR-FRET Assay Max Response [1],"Gal4-RORγ Assay Max Response [2, 3]",Gal4-RORγ Assay Max Response ([2]; 2 μM ursolic acid)
< 500,500 to 5000,–,"O=C(CC[C@H]1CN(S(=O)(=O)c2cccc(C(F)(F)F)c2)c2cc(-c3ccc(F)cc3F)ccc2O1)NS(=O)(=O)c1ccccc1 [Compound 43A, (S)-3-(6-(2,4-difluorophenyl)-4-((3-(trifluoromethyl)phenyl)-sulfonyl)-3,4-dihydro-2H-benzo[b][1,4]oxazin-2-yl)-N-(phenylsulfonyl)propanamide]",**** (The symbol “****” indicates a value greater than 200),*** (The symbol “***” indicates a value in the range of greater than 150 to 200),–
< 500,500 to 5000,–,"O=C(CC[C@H]1CN(S(=O)(=O)c2cccc(C(F)(F)F)c2)c2cc(-c3ccc(F)cc3F)ccc2O1)NS(=O)(=O)C1CC1 [Compound 43B, (S)-N-(cyclopropylsulfonyl)-3-(6-(2,4-difluorophenyl)-4-((3-(trifluoromethyl)phenyl)-sulfonyl)-3,4-dihydro-2H-benzo[b][1,4]oxazin-2-yl)propanamide]",**** (The symbol “****” indicates a value greater than 200),** (The symbol “**” indicates a value in the range of greater than 90 to 150),–
< 500,< 500,–,"CN(C)S(=O)(=O)NC[C@H]1CN(S(=O)(=O)c2cccc(C(F)(F)F)c2)c2cc(-c3cc(F)ccc3F)ccc2O1 [Compound 45A, ([[(2S)-6-(2,5-difluorophenyl)-4-[[3-(trifluoromethyl)-benzene]-sulfonyl]-3,4-dihydro-2H-1,4-benzoxazin-2-yl]methyl]sulfamoyl)-(dimethyl)amine]",**** (The symbol “****” indicates a value greater than 200),** (The symbol “**” indicates a value in the range of greater than 90 to 150),–
< 500,< 500,–,"COc1cc(S(=O)(=O)N2C[C@H](CNS(=O)(=O)N(C)C)Oc3ccc(-c4cc(F)ccc4F)cc32)ccc1F [Compound 45C, ([[(2S)-6-(2,5-difluorophenyl)-4-[[4-fluoro-3-methoxy-benzene]-sulfonyl]-3,4-dihydro-2H-1,4-benzoxazin-2-yl]methyl]sulfamoyl)-(dimethyl)amine]",*** (The symbol “***” indicates a value in the range of greater than 150 to 200),* (The symbol “*” indicates a value in the range of 25 to 90),–
< 500,–,< 500,"COc1cc(S(=O)(=O)N2C[C@H](CNS(=O)(=O)N(C)CCO)Oc3ccc(-c4cc(F)ccc4F)cc32)ccc1F [Compound 45D, ([[(2S)-6-(2,5-difluorophenyl)-4-[[4-fluoro-3-methoxy-benzene]-sulfonyl]-3,4-dihydro-2H-1,4-benzoxazin-2-yl]methyl]sulfamoyl)-(N-methyl-N-2-hydroxyethyl)-amine]",*** (The symbol “***” indicates a value in the range of greater than 150 to 200),–,* (The symbol “*” indicates a value in the range of 25 to 90)
< 500,–,< 500,"COc1cc(S(=O)(=O)N2C[C@H](CNS(=O)(=O)N3CC[C@H](O)C3)Oc3ccc(-c4cc(F)ccc4F)cc32)ccc1F [Compound 45E, (S)-N-(((S)-6-(2,5-difluoro-phenyl)-4-((4-fluoro-3-methoxyphenyl)sulfonyl)-3,4-dihydro-2H-benzo[b][1,4]oxazin-2-yl)methyl)-3-hydroxy-pyrrolidine-1-sulfonamide]",*** (The symbol “***” indicates a value in the range of greater than 150 to 200),–,** (The symbol “**” indicates a value in the range of greater than 90 to 150)

# The remaining lines, values behind:
Compound,EC50 [1] [nM],"EC50 [2, 3] [nM]",EC50 ([2]; 2 μM ursolic acid) [nM],TR-FRET Assay Max Response [1],"Gal4-RORγ Assay Max Response [2, 3]",Gal4-RORγ Assay Max Response ([2]; 2 μM ursolic acid)
"COc1cccc(-c2ccc3c(c2)N(S(=O)(=O)c2cccc(C(F)(F)F)c2)C[C@H](CCCOc2noc(=O)[nH]2)O3)c1 [Compound 36B, (S)-3-(3-(6-(3-methoxyphenyl)-4-((3-(trifluoromethyl)phenyl)-sulfonyl)-3,4-dihydro-2H-benzo[b][1,4]oxazin-2-yl)propoxy)-1,2,4-oxadiazol-5(4H)-one]",< 500,< 500,–,**** (The symbol “****” indicates a value greater than 200),** (The symbol “**” indicates a value in the range of greater than 90 to 150),–
"O=c1[nH]c(OCCC[C@H]2CN(S(=O)(=O)c3cccc(C(F)(F)F)c3)c3cc(-c4cccc(C(F)(F)F)n4)ccc3O2)no1 [Compound 36C, (S)-3-(3-(4-((3-(trifluoro-methyl)phenyl)sulfonyl)-6-(6-(trifluoromethyl)-pyridin-2-yl)-3,4-dihydro-2H-benzo[b][1,4]oxazin-2-yl)propoxy)-1,2,4-oxadiazol-5(4H)-one]",< 500,< 500,–,**** (The symbol “****” indicates a value greater than 200),** (The symbol “**” indicates a value in the range of greater than 90 to 150),–
"O=C(O)[C@@H](O)CC[C@H]1CN(S(=O)(=O)c2cccc(C(F)(F)F)c2)c2cc(-c3cc(F)ccc3F)ccc2O1 [Compound 37, (S)-4-((S)-6-(2,5-difluorophenyl)-4-((3-(trifluoromethyl)phenyl)sulfonyl)-3,4-dihydro-2H-benzo[b][1,4]oxazin-2-yl)-2-hydroxybutanoic acid]",< 500,500 to 5000,–,*** (The symbol “***” indicates a value in the range of greater than 150 to 200),*** (The symbol “***” indicates a value in the range of greater than 150 to 200),–
"O=C(O)[C@H](O)CC[C@H]1CN(S(=O)(=O)c2cccc(C(F)(F)F)c2)c2cc(-c3cc(F)ccc3F)ccc2O1 [Compound 38, (R)-4-((S)-6-(2,5-difluorophenyl)-4-((3-(trifluoromethyl)phenyl)sulfonyl)-3,4-dihydro-2H-benzo[b][1,4]oxazin-2-yl)-2-hydroxybutanoic acid]",< 500,< 500,–,*** (The symbol “***” indicates a value in the range of greater than 150 to 200),** (The symbol “**” indicates a value in the range of greater than 90 to 150),–
"C[C@](O)(CC[C@H]1CN(S(=O)(=O)c2cccc(C(F)(F)F)c2)c2cc(-c3cc(F)ccc3F)ccc2O1)C(=O)O [Compound 39, (S)-4-((S)-6-(2,5-difluorophenyl)-4-((3-(trifluoromethyl)phenyl)sulfonyl)-3,4-dihydro-2H-benzo[b][1,4]oxazin-2-yl)-2-hydroxy-2-methylbutanoic acid]",< 500,< 500,–,**** (The symbol “****” indicates a value greater than 200),** (The symbol “**” indicates a value in the range of greater than 90 to 150),–
"C[C@@](O)(CC[C@H]1CN(S(=O)(=O)c2cccc(C(F)(F)F)c2)c2cc(-c3cc(F)ccc3F)ccc2O1)C(=O)O [Compound 40, (R)-4-((S)-6-(2,5-difluorophenyl)-4-((3-(trifluoromethyl)phenyl)sulfonyl)-3,4-dihydro-2H-benzo[b][1,4]oxazin-2-yl)-2-hydroxy-2-methylbutanoic acid]",< 500,500 to 5000,–,**** (The symbol “****” indicates a value greater than 200),** (The symbol “**” indicates a value in the range of greater than 90 to 150),–
"O=S(=O)(c1cccc(C(F)(F)F)c1)N1C[C@H]([C@H](O)CO)Oc2ccc(-c3cc(F)ccc3F)cc21 [Compound 41, (R)-1-((R)-6-(2,5-difluorophenyl)-4-((3-(trifluoromethyl)phenyl)sulfonyl)-3,4-dihydro-2H-benzo[b][1,4]oxazin-2-yl)ethane-1,2-diol]",< 500,< 500,–,**** (The symbol “****” indicates a value greater than 200),* (The symbol “*” indicates a value in the range of 25 to 90),–
"CS(=O)(=O)NC(=O)CC[C@H]1CN(S(=O)(=O)c2cccc(C(F)(F)F)c2)c2cc(-c3cc(F)ccc3F)ccc2O1 [Compound 42, (S)-3-(6-(2,5-difluorophenyl)-4-((3-(trifluoromethyl)phenyl)sulfonyl)-3,4-dihydro-2H-benzo[b][1,4]oxazin-2-yl)-N-(methylsulfonyl)propanamide]",< 500,< 500,–,**** (The symbol “****” indicates a value greater than 200),** (The symbol “**” indicates a value in the range of greater than 90 to 150),–
"CNS(=O)(=O)NC[C@H]1CN(S(=O)(=O)c2cccc(C(F)(F)F)c2)c2cc(-c3cc(F)ccc3F)ccc2O1 [Compound 44, ([[(2S)-6-(2,5-difluorophenyl)-4-[[3-(trifluoromethyl)benzene]sulfonyl]-3,4-dihydro-2H-1,4-benzoxazin-2-yl]methyl]sulfamoyl)(methyl)amine]",< 500,< 500,–,**** (The symbol “****” indicates a value greater than 200),** (The symbol “**” indicates a value in the range of greater than 90 to 150),–
